Key:
[1] = Body weight of C57BL/6 mice bearing MC38 tumors (Example 11); assay type: in vivo, Mus musculus; conditions: C57BL/6, MC38, 2 μmol/kg S.C. QD
Experimental: The treatments were started when the mean tumor size reached 82-129 mm^3 (average tumor size 102 mm^3). Each group contained 6 tumor bearing mice. Group 1 was treated with Vehicle (10% DMSO+90% Saline), S.C., QD. Group 2 was given treatments with compound 2 at 2 μmol/kg, S.C., QD. Group 3 was given treatments with compound 81 at 2 μmol/kg, S.C., QD. Group 4 was given treatments with compound 443 at 2 μmol/kg, S.C., QD. Group 5 was given treatments with compound 459 at 2 μmol/kg, S.C., QD. Group 6 was given treatments with compound 3 at 2 μmol/kg, S.C., QD.
(§1) In vivo efficacy was examined according to absolute tumor growth inhibition (TGI) and the safety was evaluated according to weight change and survival in mice.

[2] = Solubility in water, remark in the synthesis example; assay type: physicochemical; conditions: remark on the isolated product
[3] = Stability in liver microsomes, dog; assay type: in vitro ADME; conditions: 60 minutes, read-out: In vitro Clint
Experimental: (§2) For metabolic stability, microsomes from human, monkey, dog, rat and mouse were used. For stability, prodrugs (1 μM) were spiked in each microsomes matrix and incubated in an orbital shaker at 37° C. Aliquots of 50 μL were taken from the reaction solution at 0, 15, 30, 45 and 60 min. The reaction was stopped by the addition of 4 volumes of cold acetonitrile with IS (100 nM alprazolam, 200 nM labetalol, 200 nM caffeine and 2 μM ketoprofen). Samples were centrifuged at 3, 220 g for 40 minutes. Aliquot of 100 μL of the supernatant was mixed with 100 μL of ultra-pure H2O and then used for LC-MS/MS analysis.
(§3) For LC-MS/MS, prodrugs were analyzed on an API 4000 instrument from AB Inc (Canada) with an ESI interface coupled to Shimadzu LC system on an Waters XSelect HSS T3 C18, 2.5 m, 2.1×30 mm column.
(§4) For data analysis, peak areas were determined from extracted ion chromatograms. The slope value, k, was determined by linear regression of the natural logarithm of the remaining percentage of the parent drug vs. incubation time curve. The in vitro half-life (in vitro t1/2) was determined from the slope value: in vitro t1/2=−(0.693/k)
(§5) Conversion of the in vitro t1/2 (min) into the in vitro intrinsic clearance (in vitro CLint, in μL/min/mg protein) was done using the following equation (mean of duplicate determinations): […]

[4] = Body weight of CES1c -/- mice bearing MC38 tumors (Example 10); assay type: in vivo; conditions: CES1c -/- mouse, MC38, 2 μmol/kg S.C. QD; for BW Change (%): D6 to D26
Experimental: The treatments were started when the mean tumor size reached 52-132 mm^3 (average tumor size 95 mm^3). Each group contained 5 tumor bearing mice. Group 1 was treated with Vehicle (10% DMSO+90% Saline), S.C., QD(Subcutaneous injection, quaque die). Group 2 was given treatments with reference compound A at 2 μmol/kg, S.C., QD. Group 3 was given treatments with compound 2 at 2 μmol/kg, S.C., QD.
as §1

[5] = Stability in liver microsomes, rat; assay type: in vitro ADME; conditions: 60 minutes, read-out: In vitro Clint
Experimental: as §2, §3, §4, §5

[6] = Stability in liver microsomes, monkey; assay type: in vitro ADME; conditions: 60 minutes, read-out: In vitro Clint
Experimental: as §2, §3, §4, §5

[7] = Plasma stability, swine plasma; conditions: 1 μM, 37° C., 4 hours
Experimental: (§6) For metabolic stability, plasma from dog, monkey, swine and human were used. For stability, prodrugs (1 μM) were spiked in respective solutions and incubated in an orbital shaker at 37° C. 50 μL aliquots of the mixture in duplicate were removed, and the reaction quenched by addition of four times the volume of ice cold acetonitrile spiked with the internal standard (Dexamethasone 100 ng/mL). […] 100 μL of the supernatant was diluted with 100 μL of water and transferred to the 0.6 mL plastic tubes on 96-well plate. Prodrug disappearance was monitored over time using a liquid chromatography and tandem mass spectrometry (LC-MS/MS).
(§7) For LC-MS/MS, prodrugs were analyzed on a ExionLC AD HPLC system coupled to REF Triple Quad 5500+ mass spectrometer with an ESI interface on an Phenomenex Kinetex 5 m C18 100A (2.1*50) mm UPLC column. The autosampler was temperature controlled and was operated at 4° C. The mobile phase used for the chromatographic separation was composed of acetonitrile/water containing 0.10% formic acid and will run at a flow rate of 0.6 mL/min for 3.5 min using gradient elution. The column effluent was monitored using […], equipped with an electrospray probe set in the positive ionization mode. Samples were introduced into the ionization source through a heated nebulized probe (400° C.). Disappearance of prodrugs will be measured from ratio of peak areas of analyte to IS.
(§8) For quantification of compound remaining, disappearance of prodrugs was measured from ratio of peak areas of analyte to IS.

[8] = Plasma stability, human plasma; conditions: 1 μM, 37° C., 4 hours
Experimental: as §6, §7, §8

[9] = Plasma stability, monkey plasma; conditions: 1 μM, 37° C., 4 hours
Experimental: as §6, §7, §8

[10] = system: MC38 tumor cells; test: Anti-tumor efficacy in MC38 model in C57BL/6 mouse (Example 11); assay type: in vivo; conditions: C57BL/6, MC38, 2 μmol/kg S.C. QD
Experimental: Animal species: Mus musculus; Strain: C57BL/6; Age: 6-8 weeks; Sex: female. The MC38 tumor cells were maintained in vitro in DMEM medium supplemented with 10% FBS at 37° C., 5% CO2. The cells growing in an exponential growth phase were harvested and counted for tumor inoculation. The culture MC38 were harvested, re-suspended in PBS containing 50% Matrigel at a density of 1×10^7 cells/mL. Each mouse was inoculated subcutaneously in the right flank region with 1×10^6 cells in 0.1 mL of PBS containing 50% Matrigel for tumor development.
The treatments were started when the mean tumor size reached 82-129 mm^3 (average tumor size 102 mm^3). Each group contained 6 tumor bearing mice. Group 1 was treated with Vehicle (10% DMSO+90% Saline), S.C., QD.
as §1
Statistical analysis of difference in tumor volume among the groups was performed using one-way ANOVA followed by individual comparisons using Games-Howell post-hoc test (equal variance not assumed). All data was analyzed using SPSS 22.0 software.

| Structure (SMILES) | microsomal CLint at 1 μM [3] [µL/min/mg] | tolerability / body weight loss [4] | BW(g) (Mean ± SEM) Beginning (D6) [4] | BW Change (%) [4] | BW(g) (Mean ± SEM) End (D26) [4] | microsomal CLint at 1 μM [5] [µL/min/mg] | microsomal CLint at 1 μM [6] [µL/min/mg] | plasma stability (compound remaining) [7] | plasma stability (compound remaining) [8] | plasma stability (compound remaining) [9] | further results |
| --- | --- | --- | --- | --- | --- | --- | --- | --- | --- | --- | --- |
| CO[C@@H](C)C(=O)N[C@@H](CCC(=O)C=[N+]=[N-])C(=O)OC(C)C [Compound 2, isopropyl (S)-6-diazo-2-((S)-2-methoxypropanamido)-5-oxohexanoate] | 12.7 | well-tolerated | 19.1 ± 0.3 | +2.4% | 19.5 ± 0.3 | 62.4 | 31.8 | substantially intact | substantially intact | substantially intact | BW(g) (Mean ± SEM) Beginning (D6) ([1]; D6): 19.8 ± 0.2 g; BW Change (%) ([1]; D6 to D20): +6.4%; BW(g) (Mean ± SEM) End (D20) ([1]; D20): 21.1 ± 0.3 g; solubility in water [2]: easily dissolved in water; T/C (%) ([10]; Example 11): 17.5%; TGI (%) ([10]; Example 11): 82.5%; TV (mm^3) (Mean ± SEM) D6 ([10]; Example 11, D6): 102 ± 7 mm^3; TV (mm^3) (Mean ± SEM) D10 ([10]; Example 11, D10): 167 ± 17 mm^3; TV (mm^3) (Mean ± SEM) D13 ([10]; Example 11, D13): 257 ± 51 mm^3; TV (mm^3) (Mean ± SEM) D17 ([10]; Example 11, D17): 306 ± 43 mm^3; TV (mm^3) (Mean ± SEM) D20 ([10]; Example 11, D20): 407 ± 33 mm^3; TV (mm^3) at D21 (Mean ± SEM) ([10]; Table 13, D21): 407 ± 33 mm^3 |
| CC(=O)N[C@@H](Cc1c[nH]c2ccccc12)C(=O)N[C@@H](CCC(=O)C=[N+]=[N-])C(=O)OC(C)C [Reference compound A, reference compound] | 60.4 | some body weight loss | 19.2 ± 0.2 | −8.3% | 17.6 ± 0.9 | 95.2 | 393 | substantially intact | substantially intact | substantially intact |  |
